The results in this text go back to ChEMBL document CHEMBL3259572, “Euodenine A: a small-molecule agonist of human TLR4” (J Med Chem, 2014).

Type in all cases: cell-based
Data set [1] in a line: Cytotoxicity against human PBMC by WST-1 cell proliferation assay. Conditions: PBMC (peripheral blood mononuclear cells). (Formazan colour is commonly taken as a measure of viable cells.)
For data set [2], the target named is Toll-like receptor 5 (Homo sapiens) (UniProt O60602). The experiment in a line: Agonist activity at human recombinant TLR5 expressed in HEK293 cells at 10 uM by SEAP reporter assay.
In data set [3] the target is T1, Toll-like receptor 9 (Homo sapiens) (UniProt Q9NR96).
T1 sequence (whole entry): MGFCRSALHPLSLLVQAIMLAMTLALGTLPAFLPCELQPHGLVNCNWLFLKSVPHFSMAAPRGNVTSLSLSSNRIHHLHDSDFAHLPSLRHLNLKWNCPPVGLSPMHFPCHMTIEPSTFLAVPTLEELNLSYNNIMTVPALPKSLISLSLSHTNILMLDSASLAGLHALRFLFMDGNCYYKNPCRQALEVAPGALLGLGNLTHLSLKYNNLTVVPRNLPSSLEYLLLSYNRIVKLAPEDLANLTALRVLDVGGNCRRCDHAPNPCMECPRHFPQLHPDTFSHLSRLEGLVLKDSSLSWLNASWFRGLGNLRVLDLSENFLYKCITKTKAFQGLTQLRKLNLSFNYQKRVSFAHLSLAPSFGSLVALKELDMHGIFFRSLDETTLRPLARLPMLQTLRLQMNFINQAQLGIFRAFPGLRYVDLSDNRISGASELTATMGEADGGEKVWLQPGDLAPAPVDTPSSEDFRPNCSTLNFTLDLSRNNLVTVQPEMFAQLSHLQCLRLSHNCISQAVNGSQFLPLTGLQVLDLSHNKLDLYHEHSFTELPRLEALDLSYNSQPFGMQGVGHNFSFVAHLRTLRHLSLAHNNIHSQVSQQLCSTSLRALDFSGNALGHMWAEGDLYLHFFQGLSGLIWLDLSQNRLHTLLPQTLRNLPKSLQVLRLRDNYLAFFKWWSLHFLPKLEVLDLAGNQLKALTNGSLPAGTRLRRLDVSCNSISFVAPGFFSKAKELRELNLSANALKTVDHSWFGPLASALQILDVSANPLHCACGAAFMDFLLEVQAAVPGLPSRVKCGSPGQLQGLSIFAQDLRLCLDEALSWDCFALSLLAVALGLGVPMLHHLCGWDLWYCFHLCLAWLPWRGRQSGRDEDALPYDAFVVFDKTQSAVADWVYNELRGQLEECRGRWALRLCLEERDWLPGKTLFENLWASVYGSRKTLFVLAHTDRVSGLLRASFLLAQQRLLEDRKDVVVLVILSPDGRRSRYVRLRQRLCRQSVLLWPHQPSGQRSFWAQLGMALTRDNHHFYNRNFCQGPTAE
Nature of the data set: Agonist activity at human recombinant TLR9 expressed in HEK293 cells at 10 uM by SEAP reporter assay.

The target in the next data set is Toll-like receptor 4 (Homo sapiens, UniProt O00206). Nature of the data set: Agonist activity at human recombinant TLR4 expressed in HEK293 cells coexpressed with human MD2 assessed as TNFalpha response by NFkappaB reporter assay. (A reporter such as luciferase makes a cellular process visible.)

Active and inactive are the calls of the source. The rule behind the calls is not given here. A value given as a limit tells only on which side of the number the result lay.

Chain of Toll-like receptor 5 (Homo sapiens) (O60602 whole entry): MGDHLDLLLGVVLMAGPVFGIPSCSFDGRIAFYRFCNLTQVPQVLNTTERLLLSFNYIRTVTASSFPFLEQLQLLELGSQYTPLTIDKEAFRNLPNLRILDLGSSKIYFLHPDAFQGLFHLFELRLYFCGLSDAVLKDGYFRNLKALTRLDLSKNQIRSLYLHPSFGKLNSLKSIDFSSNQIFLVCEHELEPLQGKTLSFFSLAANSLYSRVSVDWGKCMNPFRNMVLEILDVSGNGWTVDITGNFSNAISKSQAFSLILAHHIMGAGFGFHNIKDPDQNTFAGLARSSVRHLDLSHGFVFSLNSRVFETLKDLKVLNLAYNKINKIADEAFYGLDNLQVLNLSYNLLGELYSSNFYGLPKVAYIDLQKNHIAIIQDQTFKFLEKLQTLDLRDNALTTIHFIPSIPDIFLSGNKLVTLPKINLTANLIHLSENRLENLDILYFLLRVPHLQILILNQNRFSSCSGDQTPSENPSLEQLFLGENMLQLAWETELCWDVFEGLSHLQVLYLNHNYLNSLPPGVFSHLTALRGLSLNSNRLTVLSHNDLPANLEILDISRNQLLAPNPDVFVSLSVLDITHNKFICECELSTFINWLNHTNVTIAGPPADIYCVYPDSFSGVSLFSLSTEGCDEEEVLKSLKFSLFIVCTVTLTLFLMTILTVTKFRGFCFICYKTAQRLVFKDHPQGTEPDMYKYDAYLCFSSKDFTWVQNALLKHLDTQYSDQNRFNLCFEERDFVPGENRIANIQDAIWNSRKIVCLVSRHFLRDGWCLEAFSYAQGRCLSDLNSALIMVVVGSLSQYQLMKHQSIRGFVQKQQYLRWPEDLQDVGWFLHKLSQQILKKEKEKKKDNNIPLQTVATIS
Chain of Toll-like receptor 4 (O00206 whole entry): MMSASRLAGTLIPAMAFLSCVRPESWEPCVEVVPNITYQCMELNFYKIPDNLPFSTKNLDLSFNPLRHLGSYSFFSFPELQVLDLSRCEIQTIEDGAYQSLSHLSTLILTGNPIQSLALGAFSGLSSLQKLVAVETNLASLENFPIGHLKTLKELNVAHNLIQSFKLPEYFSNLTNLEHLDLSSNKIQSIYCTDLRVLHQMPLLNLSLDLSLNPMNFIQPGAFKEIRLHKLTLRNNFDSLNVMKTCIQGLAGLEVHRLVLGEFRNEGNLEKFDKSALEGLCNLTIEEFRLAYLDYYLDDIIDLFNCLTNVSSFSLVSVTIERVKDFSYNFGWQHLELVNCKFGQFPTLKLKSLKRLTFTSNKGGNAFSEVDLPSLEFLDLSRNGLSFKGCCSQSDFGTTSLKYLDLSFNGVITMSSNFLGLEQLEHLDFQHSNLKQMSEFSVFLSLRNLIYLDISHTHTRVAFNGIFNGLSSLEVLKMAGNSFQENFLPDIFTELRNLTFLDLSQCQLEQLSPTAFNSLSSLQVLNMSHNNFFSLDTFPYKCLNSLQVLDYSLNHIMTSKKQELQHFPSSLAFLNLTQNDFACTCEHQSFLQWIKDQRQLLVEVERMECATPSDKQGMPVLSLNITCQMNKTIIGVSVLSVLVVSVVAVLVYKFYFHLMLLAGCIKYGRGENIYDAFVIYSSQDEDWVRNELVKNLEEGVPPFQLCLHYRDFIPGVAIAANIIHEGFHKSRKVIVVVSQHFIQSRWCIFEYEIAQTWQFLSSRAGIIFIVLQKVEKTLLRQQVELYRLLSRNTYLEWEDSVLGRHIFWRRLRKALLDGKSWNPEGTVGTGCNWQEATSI

Broadly, the CC50 is the concentration giving 50% cytotoxicity. For the compound `COc1cc([C@@H]2[C@@H](C)[C@H]3[C@@H]2c2c(c4ccccc4[nH]c2=O)OC3(C)C)cc(OC)c1OC`, the CC50 in data set [1] was > 33 µM. Besides, the result in data set [2] and in data set [3] was inactive. For the same compound, the result at Toll-like receptor 4 was Active.
